Results from patent publication US20230201487A1, “NEBULIZER DEVICE OPTIMIZATION FOR IMPROVED AEROSOL PARAMETERS AND USES THEREOF” (Avalyn Pharma Inc., priority 2020, published 2023).
Marks after values point to notes of the source that are not given here.

Legend:
Type in all cases: physicochemical
[1] = Respirable aerosol droplet output rate by laser diffraction and gravimetric total output rate, simulated breathing, eFlow nebulizer; details: for Output rate Benefit, Combined Effect (Vented + XL): vented XL vs. non-vented L
Procedure: As an initial analysis, emitted aerosol saline and pirfenidone aqueous solution formulation droplet size as a function of time was measured using a Helos, Sympatec laser under partially simulated breathing conditions (adult breathing pattern, 500 mL tidal volume, 15 breaths/min with a 1:1 inhalation: exhalation ratio) using a Compas 2 breath simulator. Briefly, twelve investigational PART eFlow® nebulizers (with 6 L and 6 XL aerosol mixing chambers) with a single set of 6 (six) aerosol head class 35 (6 total heads; Table 1) were used in both L (about 49 cc volume aerosol mixing chamber) and XL (about 98 cc volume aerosol mixing chamber) configurations and tested in triplicate with the 8 mL of pirfenidone aqueous solution medicine cup reservoir under atmospheric conditions (vented) and permitting generation of negative pressure (non-vented). The following exemplary replicates were performed: A. Head 1/L/vented, B. Head 1/L/non-vented, C. Head 1/XL/vented, D. Head 1/XL/non-vented, and repeated in the following order: A, B, C, D, A, B, C, D, A, B, C, D. Results are shown in Table 2.
In this analysis, respirable aerosol droplet output rate of saline and pirfenidone formulation was determined by multiplying the respirable fraction (RF; percent emitted aerosol droplets with a diameter less than 5 microns at 20 second increments) by total output rate (TOR; calculated by dividing the total nebulizer weight loss by nebulization duration). Saline was made as 150 mM sodium chloride in water, while the pirfenidone formulation was 12.5 mg/mL pirfenidone in 5 mM citrate buffer, pH 6.0, 150 mM sodium chloride and 0.75 mM sodium saccharin in water. Duration to nebulize 8 mL saline was 8.6 min, 12.6 min, 8.5 min and 12.0 min for vented “L”, non-vented “L”, vented “XL” and non-vented “XL”, respectively. Duration to nebulize 8 mL AP01 was 8.4 min, 12.3 min, 8.3 min and 12.4 min for vented “L”, non-vented “L”, vented “XL” and non-vented “XL”, respectively.

[2] = Respirable delivered dose during breath simulation, inspiratory filters, HPLC; parameters: Slope of respirable delivered dose: unit not given here; details: for Total respirable delivered pirfenidone dose over 8 minutes: 8 mL of 12.5 mg/mL
Procedure: For a more clinically relevant comparison, in a second analysis, of aerosol delivery parameters for pirfenidone in solution, the respirable delivered dose (RDD; amount of deposited pirfenidone from aerosol droplets less than 5 microns in diameter) was measured during breath simulation (adult breathing pattern, 500 mL tidal volume, 15 breaths/min with a 1:1 inhalation: exhalation ratio) using a Compas 2 breath simulator was used as follows. Briefly, twelve investigational eFlow® (with 6 L and 6 XL aerosol mixing chambers) with a single set of 6 (six) aerosol head class 35 (6 total heads; Table 1) were used in both (about 49 cc volume) and XL (about 98 cc volume) aerosol mixing chamber configurations and tested in duplicate with the 8 mL medicine cup reservoir under atmospheric conditions (vented) and permitting generation of negative pressure (non-vented) during nebulization. An 8 mL dose (aqueous pirfenidone solution at concentration of 12.5 mg/ml) was loaded into the medicine cup reservoir and nebulization initiated. After 2, 4, 6 and 8 min of nebulization, inspiratory filters were collected and extracted for pirfenidone quantitation using HPLC analysis. A final filter was used after 8 min to collect remaining dose. The following exemplary replicates were performed: A. Head 1/L/vented, B. Head 1/L/non-vented, C. Head 1/XL/vented, D. Head 1/XL/non-vented, and repeated in the following order: A, B, C, D, A, B, C, D. Results are shown in Table 4.

[3] = Aerosol head/assembled device correlation study (TOR, VMD, GSD, nebulization time), 53 aerosol heads; details: Vented, XL Device
Procedure: To establish an aerosol generator (head) specification meeting the desired delivery of 8 mL aqueous pirfenidone solution in the assembled nebulizer device 1 not exceeding 16 minute delivery time (or an 0.5 mL/min output rate), a correlation study between the head-only performance with 0.9% NaCl (saline) and the assembled nebulizer device 1 (vented, XL configuration) performance with aqueous pirfenidone was conducted. Using heads only, the aerosol characteristics total output rate (TOR), volumetric median diameter (VMD) and geometric standard deviation (GSD) were performed under constant negative pressure (−250 mbar; relative to atmospheric pressure) and under ambient, atmospheric pressure conditions (0 mbar; relative to atmospheric pressure).
These heads were either tested alone using a special apparatus (saline −250 mbar or 0 mbar) or in assembled devices (saline and aqueous pirfenidone; 8 mL vented medicine cup reservoir 3 and XL aerosol mixing chamber 8 configuration).

Cc1ccc(=O)n(-c2ccccc2)c1 [pirfenidone, 5-methyl-1-phenyl-2-(1H)-pyridone]
Benefit of aerosol mixing chamber volume on respirable aerosol droplet output rate ([1]; all device configurations regardless of medicine cup pressure): −2 to −5.5%
Output rate Benefit, Maintaining Atmospheric Pressure (Vented) ([1]; vented L vs. non-vented L, 0-2 min): about +19.4%
Output rate Benefit, Maintaining Atmospheric Pressure (Vented) ([1]; vented L vs. non-vented L, 6-8 min): about +17.5%
Output rate Benefit, Combined Effect (Vented + XL) ([1]; 0-2 min): about +17%
Output rate Benefit, Combined Effect (Vented + XL) ([1]; 6-8 min): ~+12.6%
Output rate Benefit, Maintaining Atmospheric Pressure (Vented) ([1]; vented XL vs. non-vented XL, 0-2 min): about +23.8%
Output rate Benefit, Maintaining Atmospheric Pressure (Vented) ([1]; vented XL vs. non-vented XL, 6-8 min): about +17%
Theoretical total delivery rate ([2]; assuming a fifty percent respirable delivered dose, 12.5 mg/mL): 6.25 mg per minute
Slope of respirable delivered dose ([2]; non-vented (NV), L aerosol mixing chamber): −0.16
Respirable Delivered Dose ([2]; non-vented (NV), L aerosol mixing chamber, 0-2 min): 5.75 mg/time increment
Respirable Delivered Dose ([2]; non-vented (NV), L aerosol mixing chamber, 2-4 min): 5.71 mg/time increment
Respirable Delivered Dose ([2]; non-vented (NV), L aerosol mixing chamber, 4-6 min): 5.49 mg/time increment
Respirable Delivered Dose ([2]; non-vented (NV), L aerosol mixing chamber, 6-8 min): 5.27 mg/time increment
Slope of respirable delivered dose ([2]; non-vented (NV), XL aerosol mixing chamber): −0.20
Respirable Delivered Dose ([2]; non-vented (NV), XL aerosol mixing chamber, 0-2 min): 6.50 mg/time increment
Respirable Delivered Dose ([2]; non-vented (NV), XL aerosol mixing chamber, 2-4 min): 6.44 mg/time increment
Respirable Delivered Dose ([2]; non-vented (NV), XL aerosol mixing chamber, 4-6 min): 6.37 mg/time increment
Respirable Delivered Dose ([2]; non-vented (NV), XL aerosol mixing chamber, 6-8 min): 5.87 mg/time increment
RDD Benefit, Increased Aerosol mixing chamber (XL) ([2]; non-vented L vs. non-vented XL, 0-2 min): 13.15^g %
RDD Benefit, Increased Aerosol mixing chamber (XL) ([2]; non-vented L vs. non-vented XL, 6-8 min): 11.28^g %
Respirable delivered dose per minute ([2]; non-vented L, 12.5 mg/mL): 2.78 mg/min
Total respirable delivered pirfenidone dose over 8 minutes ([2]; non-vented L): 22.22 mg
Slope of respirable delivered dose ([2]; vented (V), L aerosol mixing chamber): 0.12
Respirable Delivered Dose ([2]; vented (V), L aerosol mixing chamber, 0-2 min, 8 mL of 12.5 mg/ml): 5.97 mg/time increment
Respirable Delivered Dose ([2]; vented (V), L aerosol mixing chamber, 2-4 min): 6.16 mg/time increment
Respirable Delivered Dose ([2]; vented (V), L aerosol mixing chamber, 4-6 min): 6.33 mg/time increment
Respirable Delivered Dose ([2]; vented (V), L aerosol mixing chamber, 6-8 min): 6.32 mg/time increment
Slope of respirable delivered dose ([2]; vented (V), XL aerosol mixing chamber): 0.13
Respirable Delivered Dose ([2]; vented (V), XL aerosol mixing chamber, 0-2 min): 6.65 mg/time increment
Respirable Delivered Dose ([2]; vented (V), XL aerosol mixing chamber, 2-4 min): 7.07 mg/time increment
Respirable Delivered Dose ([2]; vented (V), XL aerosol mixing chamber, 4-6 min): 7.01 mg/time increment
Respirable Delivered Dose ([2]; vented (V), XL aerosol mixing chamber, 6-8 min): 7.11 mg/time increment
RDD Benefit, Increased Aerosol mixing chamber (XL) ([2]; vented L vs. vented XL, 0-2 min): 11.35^e %
RDD Benefit, Increased Aerosol mixing chamber (XL) ([2]; vented L vs. vented XL, 6-8 min): 12.49^e %
Respirable delivered dose per minute ([2]; vented XL, 12.5 mg/mL): 3.48 mg/min
Total respirable delivered pirfenidone dose over 8 minutes ([2]; vented XL): 27.84 mg
Total Output Rate (TOR), Average [3]: 0.782 g/min
Total Output Rate (TOR), Max [3]: 1.049 g/min
Total Output Rate (TOR), Min [3]: 0.382 g/min
